Patent publication US8372823B2, “Tetracyclic inhibitors of fatty acid amide hydrolase” (The Scripps Research Institute, priority 2007, dated 2013)

Key:
Assay type in all cases: biochemical
[1] = molecular target: T1, FAAH (Homo sapiens, UniProt O00519); assay: FAAH inhibition IC50, human; parameters: expressed in transfected cells; host or cells: COS-7 (transient transfection), solubilized membrane extracts; conditions: inhibition at 3-5 test compound concentrations
T1 sequence (O00519 1-579): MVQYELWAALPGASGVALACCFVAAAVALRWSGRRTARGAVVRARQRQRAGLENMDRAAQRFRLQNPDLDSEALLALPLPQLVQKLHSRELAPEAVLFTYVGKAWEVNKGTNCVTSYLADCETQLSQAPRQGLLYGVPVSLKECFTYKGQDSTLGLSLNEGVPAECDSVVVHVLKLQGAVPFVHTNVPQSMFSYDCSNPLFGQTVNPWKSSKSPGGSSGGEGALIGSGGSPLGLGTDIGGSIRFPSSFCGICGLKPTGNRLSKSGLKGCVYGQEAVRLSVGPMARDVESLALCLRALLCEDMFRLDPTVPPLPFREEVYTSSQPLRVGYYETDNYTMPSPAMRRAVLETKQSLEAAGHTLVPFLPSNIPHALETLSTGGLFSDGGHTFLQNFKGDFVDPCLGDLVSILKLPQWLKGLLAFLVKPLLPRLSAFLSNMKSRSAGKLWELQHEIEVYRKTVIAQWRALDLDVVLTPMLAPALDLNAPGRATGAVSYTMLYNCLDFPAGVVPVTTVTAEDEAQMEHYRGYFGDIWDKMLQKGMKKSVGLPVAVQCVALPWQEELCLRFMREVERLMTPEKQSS
Protocol: (§1) Enzyme assays were performed at 20-23° C. with purified recombinant rat FAAH expressed in E. coli (Patricelli, M. P.; Lashuel, H. A.; et al. Biochemistry 1998, 37, 15177-15187) (unless indicated otherwise) or with solubilized COS-7 membrane extracts from cells transiently transfected with human FAAH cDNA (Giang, D. K.; Cravatt, B. F. Proc. Natl. Acad. Sci. U.S.A. 1997, 94, 2238-2242) (where specifically indicated) in a buffer of 125 mM Tris/1 mM EDTA/0.2% glycerol/0.02% Triton X-100/0.4 mM Hepes, pH 9.0 buffer (Patricelli, M. P.; Patterson, J. P.; et al. Bioorg. Med. Chem. Lett. 1998, 8, 613-618). […] NT=no data available.
(§2) IC50 values were determined from the inhibition observed at 3-5 different test compound concentrations (from three or more trials at each concentration) using the formula IC50=[I]/[K0/Ki)-1], where K0 is the control reaction rate without inhibitor and Ki is the rate with test compound at concentration [I] (Conde-Frieboes, K. et al. J. Am. Chem. Soc. 1996, 118, 5519-5525). NT=no data available.

[2] = molecular target: T2, rat FAAH (Rattus norvegicus, UniProt P97612); assay: FAAH inhibition IC50, rat; conditions: inhibition at 3-5 test compound concentrations
T2 construct: made in house; host or cells: E. coli
T2 sequence (P97612 1-579): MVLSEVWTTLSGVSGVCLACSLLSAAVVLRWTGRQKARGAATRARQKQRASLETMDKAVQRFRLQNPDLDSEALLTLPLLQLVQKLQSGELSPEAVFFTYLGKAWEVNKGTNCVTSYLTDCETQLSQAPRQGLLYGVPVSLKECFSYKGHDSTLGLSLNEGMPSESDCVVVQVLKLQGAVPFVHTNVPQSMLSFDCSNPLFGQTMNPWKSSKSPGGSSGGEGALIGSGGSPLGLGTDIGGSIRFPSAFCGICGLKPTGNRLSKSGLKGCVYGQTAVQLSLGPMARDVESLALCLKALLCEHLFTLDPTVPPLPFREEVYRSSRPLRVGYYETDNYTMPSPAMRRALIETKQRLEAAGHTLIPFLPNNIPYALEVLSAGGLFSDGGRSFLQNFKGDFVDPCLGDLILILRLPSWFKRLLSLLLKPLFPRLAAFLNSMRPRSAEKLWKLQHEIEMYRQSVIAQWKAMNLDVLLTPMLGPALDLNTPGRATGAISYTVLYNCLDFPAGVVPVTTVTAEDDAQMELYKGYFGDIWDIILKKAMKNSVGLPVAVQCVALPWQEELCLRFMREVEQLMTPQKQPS
Protocol: as §1, §2

[3] = molecular target: T3, purified recombinant rat FAAH (Rattus norvegicus, UniProt P97612); assay: FAAH enzyme assay, Ki (Dixon plot), rat FAAH; conditions: purified recombinant rat FAAH expressed in E. coli; 14C-oleamide hydrolysis; pH 9.0; 20-23° C.
T3 construct: made in house; host or cells: E. coli
T3 sequence (P97612 1-579): T2 sequence (P97612 1-579)

| SMILES | IC50 [1] [nM] | IC50 [2] [nM] | Ki [3] [nM] |
| --- | --- | --- | --- |
| COC(=O)c1ccc(-c2cnc(C(=O)CCc3ccc(-c4ccccc4)cc3)o2)cn1 [Example 32, 5-[2-(3-Biphenyl-4-yl-propionyl)-oxazol-5-yl]pyridine-2-carboxylic acid methyl ester] | 500 | 17 | 0.6 |
| COC(=O)c1ccc(-c2cnc(C(=O)CCc3ccc(COc4ccccc4)cc3)o2)nc1 [Example 17] | 0.8 | 2.5 | 3.5 |
| COC(=O)c1cccc(-c2cnc(C(=O)CCc3ccc(-c4ccc(CN5CCOCC5)cc4)cc3)o2)n1 [Example 35, 6-{2-[3-(4′-Morpholin-4-ylmethyl-biphenyl-4-yl)-propionyl]-oxazol-5-yl}-pyridine-2-carboxylic acid methyl ester] | 21 | 2 | 31 |
| O=C(CCc1ccc(-c2ccccc2)cc1)c1ncc(-c2cccnc2)o1 [Example 31, 3-Biphenyl-4-yl-1-(5-pyridin-3-yl-oxazol-2-yl)-propan-1-one] | 22 | 2 | 1.1 |
| O=C(O)c1ccc(-c2cnc(C(=O)CCc3ccc(Oc4ccccc4)cc3)o2)nc1 [Example 15, 6-{2-[3-(4-Phenoxy-phenyl)-propionyl]-oxazol-5-yl}-nicotinic acid] | 0.3 | 0.2 | 33 |
| O=C(COc1ccc(OCc2ccccc2)cc1)c1ncc(-c2ccccn2)o1 [Example 11b, 2-(4-(Benzyloxy)phenoxy)-1-(5-(pyridin-2-yl)oxazol-2-yl)ethanone] |  |  | 5300 |
| O=C(O)c1cccc(-c2cnc(C(=O)CCc3ccc(-c4ccc(CN5CCOCC5)cc4)cc3)o2)n1 [Example 41, 6-{2-[3-(4′-Morpholin-4-ylmethyl-biphenyl-4-yl)-propionyl]-oxazol-5-yl}-pyridine-2-carboxylic acid] | 9 | 3 | 150 |
| O=C(CCc1ccc(Nc2ccccc2)cc1)c1ncc(-c2ccccn2)o1 [Example 11g, 1-Oxo-1-[5-(2-pyridyl)oxazol-2-yl]-3-(4-(phenylamino)phenyl)-propane] |  |  | 2 |
| O=C(CCc1ccc(COc2ccccc2)cc1)c1ncc(-c2cccc(-c3nnn[nH]3)n2)o1 [Example 47, 3-(4-Phenoxymethyl-phenyl)-1-{5-[6-(1H-tetrazol-5-yl)-pyridin-2-yl]-oxazol-2-yl}-propan-1-one] |  |  | 21 |
| O=C(O)c1ccc(-c2cnc(C(=O)CCc3ccc(-c4ccccc4)cc3)o2)cn1 [Example 33, 5-[2-(3-Biphenyl-4-yl-propionyl)-oxazol-5-yl]-pyridine-2-carboxylic acid] | 580 | 44 | 44 |
| COC(=O)c1cccc(-c2cnc(C(=O)CCc3ccc(-c4ccc(CN5CCSCC5)cc4)cc3)o2)n1 [Example 36, 6-{2-[3-(4′-Thiomorpholin-4-ylmethyl-biphenyl-4-yl)-propionyl]-oxazol-5-yl}-pyridine-2-carboxylic acid methyl ester] |  |  | 5 |
| O=C(O)c1cccc(-c2cnc(C(=O)CCc3ccc(-c4ccccc4)cc3)o2)n1 [Example 24, 6-[2-(3-Biphenyl-4-yl-propionyl)-oxazol-5-yl]-pyridine-2-carboxylic acid] | 2 | 0.6 | 22 |
| CN1CCN(Cc2ccc(-c3ccc(CCC(=O)c4ncc(-c5cccc(C(=O)O)n5)o4)cc3)cc2)CC1 [Example 45, 6-(2-{3-[4′-(4-Methyl-piperazin-1-ylmethyl)-biphenyl-4-yl]-propionyl}-oxazol-5-yl)-pyridine-2-carboxylic acid] |  |  | 1230 |
| O=C(O)c1ccc(-c2cnc(C(=O)CCc3ccc(COc4ccccc4)cc3)o2)nc1 [Example 19, 6-{2-[3-(4-Phenoxymethyl-phenyl)-propionyl]-oxazol-5-yl}-nicotinic acid] | 0.8 | 2.5 | 4.6 |
| COC(=O)c1cccc(-c2cnc(C(=O)CCc3ccc(-c4ccc(CN5CCCC5)cc4)cc3)o2)n1 [Example 37] |  |  | 18 |
| O=C(CCc1ccc(Oc2ccccc2)cc1)c1ncc(-c2ccccn2)o1 [Example 11f, 1-Oxo-1-[5-(2-pyridyl)oxazol-2-yl]-3-(4-phenoxyphenyl)propane] |  |  | 3.4 |
| O=C(O)c1cccc(-c2cnc(C(=O)CCc3ccc(-c4ccc(CN5CCCCC5)cc4)cc3)o2)n1 [Example 40, 6-{2-[3-(4′-Piperidin-1-ylmethyl-biphenyl-4-yl)-propionyl]-oxazol-5-yl}-pyridine-2-carboxylic acid] |  |  | 44 |
| COC(=O)c1cccc(-c2cnc(C(=O)CCc3ccc(-c4ccc(CN(C)C)cc4)cc3)o2)n1 [Example 38] |  |  | 29 |
| O=C(O)c1cccc(-c2cnc(C(=O)CCc3ccc(-c4ccc(CN5CCCC5)cc4)cc3)o2)n1 [Example 43, 6-{2-[3-(4′-Pyrrolidin-1-ylmethyl-biphenyl-4-yl)-propionyl]-oxazol-5-yl}-pyridine-2-carboxylic acid] |  |  | 127 |
| CN(C)Cc1ccc(-c2ccc(CCC(=O)c3ncc(-c4cccc(C(=O)O)n4)o3)cc2)cc1 [Example 44, 6-{2-[3-(4′-Dimethylaminomethyl-biphenyl-4-yl)-propionyl]-oxazol-5-yl}-pyridine-2-carboxylic acid] |  |  | 150 |
| COC(=O)c1cccc(-c2cnc(C(=O)CCc3ccc(-c4ccc(CN5CCN(C)CC5)cc4)cc3)o2)n1 [Example 39, 6-(2-{3-[4′-(4-Methyl-piperazin-1-ylmethyl)-biphenyl-4-yl]-propionyl}-oxazol-5-yl)-pyridine-2-carboxylic acid methyl ester] |  |  | 200 |
| O=C(CCc1cccc(OCc2ccccc2)c1)c1ncc(-c2ccccn2)o1 [Example 11c, 1-Oxo-1-[5-(2-pyridyl)oxazol-2-yl]-3-(3-(benzyloxy)phenyl)-propane] |  |  | 25 |
| O=C(CCc1ccc(Cc2ccccc2)cc1)c1ncc(-c2ccccn2)o1 [Example 11h, 1-Oxo-1-[5-(2-pyridyl)oxazol-2-yl]-3-(4-benzylphenyl)propane] |  |  | 3.2 |
| O=C(CCc1ccc(Sc2ccccc2)cc1)c1ncc(-c2ccccn2)o1 [Example 11i, 1-Oxo-1-[5-(2-pyridyl)oxazol-2-yl]-3-(4-(phenylthio)phenyl)propane] |  |  | 2.2 |
| O=C(COc1cccc(OCc2ccccc2)c1)c1ncc(-c2ccccn2)o1 [Example 11d, 2-(3-(Benzyloxy)phenoxy)-1-(5-(pyridin-2-yl)oxazol-2-yl)ethanone] |  |  | 2100 |
| COC(=O)c1cccc(-c2cnc(C(=O)CCc3ccc(-c4ccc(CN5CCCCC5)cc4)cc3)o2)n1 [Example 34, 6-{2-[3-(4′-Piperidin-1-ylmethyl-biphenyl-4-yl)-propionyl]-oxazol-5-yl}-pyridine-2-carboxylic acid methyl ester] |  |  | 9 |
| O=C(O)c1cccc(-c2cnc(C(=O)CCc3ccc(-c4ccc(CN5CCSCC5)cc4)cc3)o2)n1 [Example 42, 6-{2-[3-(4′-Thiomorpholin-4-ylmethyl-biphenyl-4-yl)-propionyl]-oxazol-5-yl}-pyridine-2-carboxylic acid] |  |  | 28 |
| N#Cc1cccc(-c2cnc(C(=O)CCc3ccc(COc4ccccc4)cc3)o2)n1 [Example 48] |  |  | 3 |
